We go through eleven compounds from patent US20040266857A1, “Novel lapachone compounds and methods of use thereof” (priority 2002, published 2004).

In data set [1] the test system is DLD1 human colon carcinoma cells. Description: Cell proliferation (colony formation) assay, DLD1. To be noted: DLD-1, cancer cell line DLD1, 4 h exposure, colonies scored after 10-15 days, compounds added in micromolar concentrations. In kind it is cell-based. How it is done:
(§1) Cell proliferation assays were performed as described previously (Müller et al., (1996) J. Med. Chem. 39: 3132-3138; Müller et al., (1994) J. Med. Chem. 37: 1660-1669). More specifically, exponentially growing cells were seeded at 1,000 cells per well in six-well plates and allowed to attach for 24 h. […] Control wells were treated with equivalent volumes of DMSO. After 4 h, the supernatant was removed and fresh medium was added. Cultures were observed daily for 10-15 days and then were fixed and stained. Colonies of greater than 30 cells were scored as survivors. The assays of the present invention as shown in Table 2 and methods of measuring induction of E2F activity and elevation of E2F levels can be carried out following the descriptions found in Li et al., (2003) Proc Natl Acad Sci USA. 100(5): 2674-8 and U.S. Patent Application Publication No.2002/0169135, both incorporated herein by reference in their entireties.

The test system of data set [2] is SW-480 human colon carcinoma cells. Description: Cell proliferation (colony formation) assay, SW480. It is filed as cell-based. To be noted: cancer cell line SW480, 4 h exposure, colonies scored after 10-15 days, compounds added in micromolar concentrations. How it is done:
as §1

Data set [3] relates to MCF-7 human breast carcinoma cells. In words: Cell proliferation (colony formation) assay, MCF7. It is filed as cell-based. To be noted: cancer cell line MCF7, 4 h exposure, colonies scored after 10-15 days, compounds added in micromolar concentrations. How it is done:
as §1

Data set [4] relates to NCM 460 normal colonic epithelial cells. Description: Cell proliferation (colony formation) assay, NCM460 normal cells. It is filed as cell-based. The note with it: Homo sapiens; normal cell line NCM460; 4 h exposure, colonies scored after 10-15 days; compounds added in micromolar concentrations; read-out: Average IC50 Normal Cell Lines Colon NCM460. How it is done:
as §1

Data set [5] concerns MIA PACA-2 human pancreatic carcinoma cells. In words: Cell proliferation (colony formation) assay, PaCa-2. To be noted: cancer cell line PaCa-2, 4 h exposure, colonies scored after 10-15 days, compounds added in micromolar concentrations, read-out: Average IC50 Pancr. PaCa-2. It is filed as cell-based. How it is done: as §1
Data set [6] has as its system A549 human lung carcinoma cells. Description: Cell proliferation (colony formation) assay, A549. In kind it is cell-based. To be noted: cancer cell line A549, 4 h exposure, colonies scored after 10-15 days, compounds added in micromolar concentrations. How it is done: as §1, with “The assays of the present invention as shown in Table 2 and methods of measuring induction of E2F activity and elevation of E2F levels can be carried out following the descriptions found in Li et al., (2003) Proc Natl Acad Sci USA.” left out

Data set [7] relates to HT-29 human colon carcinoma cells. In words: Cell proliferation (colony formation) assay, HT-29. In kind it is cell-based. To be noted: cancer cell line HT-29, 4 h exposure, colonies scored after 10-15 days, compounds added in micromolar concentrations. How it is done:
as §1

Data set [8] has as its system MCF 10A normal breast epithelial cells. Description: Cell proliferation (colony formation) assay, MCF10A normal cells. In kind it is cell-based. The note with it: Homo sapiens, normal cell line MCF10A, 4 h exposure, colonies scored after 10-15 days, compounds added in micromolar concentrations, read-out: Average IC50 Normal Cell Lines Breast MCF10A. How it is done: as §1

The test system of another data set is human cancer cell lines. The note with it: single agent; typical range; read-out: antineoplastic activity against human cancer cell lines (IC50); cited from earlier work.
The test system of data set [9] is normal fresh or proliferating human PBMC. The note with it: cited from earlier work.
Data set [10] relates to E2F family of transcription factors. The note with it: cancer cells versus normal cells; cited from earlier work.
For data set [11], the system named is cancer cell lines and normal cells. To be noted: Li et al. 2003; cited from earlier work.

Regarding `CC1OC2=C(C(=O)C(=O)c3ccccc32)C1(C)C` (stereo not drawn) [Dunnione, 2,3,3-trimethyl-2,3,4,5-tetrahydro-naphtho(2,3-b)dihydrofuran-6,7-dione, reference compound], the IC50 (as a rule, the concentration that inhibits the measured activity by half) in data set [1] is 2800 nM; in [2], 2800 nM; in data set [3], 1000 nM; in [4], 4000 nM.

Turning to `CC1(C)CCC2=C(S1)C(=O)c1ccccc1C2=O` [Compound 2, 3,4-dihydro-2,2-dimethyl-2H-naphtho[2,3-b]thiopyran-5,10-dione], the results for the IC50 in data set [1], in data set [2] and in data set [3] were 32000 nM, 32000 nM and 16000 nM, respectively.

As for `CC1OC2=C(SC1C)c1ccccc1C(=O)C2=O` (stereo not drawn) [Compound 10, 2,3-dimethyl-11,12-dehydro-naphtho[1,2-b]thioxane-9,10-dione], the IC50 in data set [2] came out at 1000 nM; in [5], 2000 nM; in data set [6], 1800 nM; in data set [7], 2000 nM; in data set [4], 6100 nM; in data set [8], 8000 nM.

With `CC1SC2=C(C(=O)C(=O)c3ccccc32)C1(C)C` (stereo not drawn) [Compound 3, 2,3,3-trimethyl-2H-3H-naphtho[1,2-b]thiophene-4,5-dione], the IC50 was found to be 900 nM in data set [1]; 900 nM in data set [2]; 1000 nM in data set [3]; 1500 nM in data set [7]; 2000 nM in [4].

Regarding `CC1CSC2=C(O1)C(=O)C(=O)c1ccccc12` (stereo not drawn) [Compound 9, 2-methyl-11,12-dehydro-naphtho[1,2-b]thioxane-9,10-dione], the IC50 worked out at 1500 nM in data set [2]; 1400 nM in [5]; 2000 nM in [6]; 1500 nM in data set [7]; 4900 nM in data set [4]; 6400 nM in data set [8].

As for `CC1(C)CCC2=C(O1)c1ccccc1C(=O)C2=O` [β-Lapachone, 3,4-dihydro-2,2-dimethyl-2H-naphtho[1,2-b]pyran-5,6-dione, reference compound], the IC50 turned out to be 3600 nM in data set [1]; 3300 nM in [2]; 1000 nM in data set [3]; 1600 nM in data set [5]; 2100 nM in [7]; 8100 nM in [4]. The IC50 in data set [8] was 5800 nM; in the data set on human cancer cell lines, 1000 to 10000 nM. Further, the “cytotoxic effects on normal human PBMC” value in [9] was “No cytotoxic effects”. For the same compound, in [10], the “induction of sustained E2F activity in nuclei of cancer cells but not in normal cells” value was “induces sustained E2F activity”. Also, the “induction of apoptosis in cancer cell lines versus normal cells” value in [11] is “induces apoptosis only in cancer cell lines and not in normal cells”.

For `CC1SC2=C(C(=O)C(=O)c3ccccc32)C1(c1ccccc1)c1ccccc1` (stereo not drawn) [Compound 5, 2-methyl-3,3-diphenyl-2H-3H-naphtho[1,2-b]thiophene4,5-dione], the IC50 in [5] was 1300 nM; in data set [6] it was 2300 nM; in [7], 1700 nM; in data set [4] it was 7800 nM; in data set [8] it was 5900 nM.

Take `CC1SC2=C(OC1(C)C)C(=O)C(=O)c1ccccc12` (stereo not drawn) [Compound 12, 2,2,3-trimethyl-11,12-dehydro-naphtho[1,2-b]thioxane-9,10-dione]: the IC50 stood at 2200 nM in data set [5]; 3100 nM in [6]; 4000 nM in data set [7]; 13100 nM in [4]; 14100 nM in data set [8].

Consider `O=C1C(=O)c2ccccc2C2=C1C(c1ccccc1)CCS2` (stereo not drawn) [Compound 7, 3,4-dihydro-4-phenyl-2H-naphtho[1,2-b]thiopyran-5,6-dione], for which the IC50 in data set [5] came to 2300 nM; in data set [6], 2000 nM; in [7] it was 2200 nM; in [4], 8800 nM; in data set [8], 7000 nM.

Regarding `CC1(C)CCC2=C(S1)c1ccccc1C(=O)C2=O` [Compound 1, 3,4-dihydro-2,2-dimethyl-2H-naphtho[1,2-b]thiopyran-5,6-dione], the IC50 in [1] is 2000 nM; in data set [2], 1500 nM; in data set [3], 1000 nM; in [5] it was 1500 nM; in data set [6], 1700 nM; in data set [7], 1800 nM. The results for the IC50 in data set [4] and in data set [8] were 7500 nM and 6700 nM, respectively.

As for `CC1(C)CCSC2=C1C(=O)C(=O)c1ccccc12` [Compound 6, 3,4-dihydro4,4-dimethyl-2H-naphtho[1,2-b]thiopyran-5,6-dione], the IC50 in data set [5] was determined as 1200 nM; in data set [6], 1600 nM; in data set [7] it was 1600 nM; in [4], 6000 nM; in data set [8], 6300 nM.
